# From patent US8530507B2, “Use of levo-ornidazole in the preparation of anti-anaerobic bacteria infection drugs” (priority 2005, dated 2013)
# Like-named read-outs stand apart in the source and are kept apart here.
# Experiments:
# [1] = Acute toxicology test, LD50 in mice (Bliss method); format: in vivo; settings: both sexes, Kunming, mouse, in vivo, read-out: 95% confidence interval (CI) of LD50
# Procedure: Kunming mice, half males and half females, with body weights of 18˜22 g, were administered the testing drug solution by injection 8 hours after fasting. The death status of animals was consecutively observed for 14 days after administration.
# mice = settings: mouse, in vivo, 40 mg/kg
# Procedure: The same volume of 0.9% sodium chloride injection containing propylene glycol was administered in the vehicle control group. 30 minute after drug administration, 40 mg/kg of sodium thiopental was administered to mice by intraperitoneal injection. The time for the loss of righting reflex and the time for the recovery were recorded. The injection volume was 0.2 ml/10 g, the administration rate was 0.2 ml/10 sec.
# [2] = In vivo pharmacokinetics in Beagle dogs
# Procedure: The clinical dose of ornidazole is 500 mg for human. By calculating, based on body surface area, the pharmacokinetic experimental dose in Beagle dogs was 13 mg/kg in vivo. Six adult beagle dogs (half males and half females, body weight of 9˜11.5 kg) were randomly divided into three groups. According to crossover design, intravenous injection of L-, D-, and racemic ornidazole were administered in turn to each dog every other week (with one week washout period in between). 2 ml of blood was collected from the vein located at the forelimb of the dogs before drug administration and 0.083, 0.5, 1.0, 2.0, 4.0, 6.0, 8.0, 12.0, 16.0, 24.0 hours after drug administration, which was then placed in the heparinized tube, followed by centrifugation to obtain the plasma. Plasma concentration of drug was determined by HPLC. Pharmacokinetics parameters were estimated using the non-compartmental models. The corresponding pharmacokinetics parameters were obtained by BAPP2.0 using the data of plasma concentration of blood with time obtained above.
# Beagle dogs = settings: dog, in vivo, iv, 200 mg/kg
# Text: 2. Toxicity Test in Beagle Dogs (Non-Rodent) After Intravenous Administration of L-ornidazole for Two Weeks
# Beagle dogs, 4 dogs in each group with half females and half males, were divided into L-, D-, and racemic ornidazole groups.
# [3] = beagle dogs, individual intravenous dose 13 mg/kg, plasma
structure (smiles),measurement,setting,value
"Cc1ncc([N+](=O)[O-])n1CC(O)CCl (racemic) [racemic ornidazole, ornidazole]",LD50 at 14 days,[1]; intravenous injection,272 to 346 mg/kg
same,LD50 at 14 days,"[1]; ip, intraperitoneal injection",1030 to 1210 mg/kg
same,LD50 at 14 days,[1]; oral gavage,674 to 878 mg/kg
same,"duration of sleeping induced by sodium thiopental, compared with the vehicle control group",mice,significantly extended
same,half-life,"[2]; both sexes, dog, beagle dogs, individual intravenous dose 13 mg/kg, plasma, HPLC, non-compartmental, read-out: t1/2 (half life) (converted)",5.55 ± 3.12 h
same,AUC(0-t),"[2]; both sexes, dog, beagle dogs, individual intravenous dose 13 mg/kg, plasma, read-out: AUC0-t (area under curve)",76700 ± 10800 ng·h/mL
same,clearance,"[2]; both sexes, dog, beagle dogs, individual intravenous dose 13 mg/kg, plasma, read-out: Cl (clearance) (converted)",23.8 mL/min
same,MRT,"[2]; both sexes, dog, beagle dogs, individual intravenous dose 13 mg/kg, plasma, read-out: MRT (mean retention time of drugs)",8.01 ± 3.42 h
same,Vd,"[2]; both sexes, dog, beagle dogs, individual intravenous dose 13 mg/kg, plasma, read-out: Vβ (elimination volume of distribution)",11.2 ± 3.96 L
same,number of Purkinje cells in cerebellum (histological examination),Beagle dogs,No reduction in the number of Purkinje cells and cellular degeneration was observed
"Cc1ncc([N+](=O)[O-])n1C[C@H](O)CCl [L-ornidazole, 1-(3-chloro-2-S-(−)-hydroxypropyl)-2-methyl-5-nitroimidazole]",AUC0-t (area under curve),[2]; [3],90940 ± 8330 ng·h/mL
same,Cl (clearance),[2]; [3],1.22 ± 0.13 L/h
same,MRT (mean retention time of drugs),[2]; [3],10.06 ± 1.57 h
same,Vβ (elimination volume of distribution),[2]; [3],12.23 ± 1.84 L
same,t1/2 (half life),"[2]; beagle dogs, individual intravenous dose 13 mg/kg, plasma, HPLC, non-compartmental",6.97 ± 1.09 h
same,in vivo transformation of enantiomers between L- and D-ornidazole,"[2]; dog, in vivo, iv",not occurred
same,food intake and body weight,Beagle dogs,Food intake of testing animals was inhibited while body weight of the testing animals was inhibited to a certain extent
same,histological examination of organs,Beagle dogs,Significant pathological changes were not found
same,manifestations (toxicity and side effects),Beagle dogs,"merely drooling, vomiting, involuntary urination and the like"
same,recovery time of manifestations,Beagle dogs,1 to 2 h
same,toxic effects,Beagle dogs,significant toxic effects were not observed
